Tested on: NOMO1
Assay: cell viability relative to DMSO control; higher = less cytotoxic
Details: 48 h
Method in brief: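 Cells were incubated for 48 h at 37°C before CellTiter-Glo One luminescence was read. The cells were NOMO1 or SEM (500 cells/well) or P12-Ichikawa (1000 cells/well) leukemia cells, adapted for at least four passages in each medium and seeded in 1536-well plates (5 μl). Dosing used library compounds in DMSO applied by pin over 11 threefold points, 47 μM to 0.79 nM. Viability is the per-plate percentage of DMSO wells, with cell-free wells as background.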

[1] = HPLM + 10% dialyzed FBS, 0.000781 µM
[2] = HPLM + 10% dialyzed FBS, 0.00234 µM
[3] = HPLM + 10% dialyzed FBS, 0.00702 µM
[4] = HPLM + 10% dialyzed FBS, 0.0211 µM
[5] = HPLM + 10% dialyzed FBS, 0.0632 µM
[6] = HPLM + 10% dialyzed FBS, 0.19 µM
[7] = HPLM + 10% dialyzed FBS, 0.569 µM
[8] = HPLM + 10% dialyzed FBS, 1.71 µM
[9] = HPLM + 10% dialyzed FBS, 5.12 µM
[10] = HPLM + 10% dialyzed FBS, 15.4 µM
[11] = HPLM + 10% dialyzed FBS, 46.1 µM
[12] = RPMI 5 mM glucose + 10% FBS, 0.000781 µM
[13] = RPMI 5 mM glucose + 10% FBS, 0.00234 µM
[14] = RPMI 5 mM glucose + 10% FBS, 0.00702 µM
[15] = RPMI 5 mM glucose + 10% FBS, 0.0211 µM
[16] = RPMI 5 mM glucose + 10% FBS, 0.0632 µM
[17] = RPMI 5 mM glucose + 10% FBS, 0.19 µM
[18] = RPMI 5 mM glucose + 10% FBS, 0.569 µM
[19] = RPMI 5 mM glucose + 10% FBS, 1.71 µM
[20] = RPMI 5 mM glucose + 10% FBS, 5.12 µM
[21] = RPMI 5 mM glucose + 10% FBS, 15.4 µM
[22] = RPMI 5 mM glucose + 10% FBS, 46.1 µM
[23] = RPMI 5 mM glucose + 10% dialyzed FBS, 0.000781 µM
[24] = RPMI 5 mM glucose + 10% dialyzed FBS, 0.00234 µM
[25] = RPMI 5 mM glucose + 10% dialyzed FBS, 0.00702 µM
[26] = RPMI 5 mM glucose + 10% dialyzed FBS, 0.0211 µM
[27] = RPMI 5 mM glucose + 10% dialyzed FBS, 0.0632 µM
[28] = RPMI 5 mM glucose + 10% dialyzed FBS, 0.19 µM
[29] = RPMI 5 mM glucose + 10% dialyzed FBS, 0.569 µM
[30] = RPMI 5 mM glucose + 10% dialyzed FBS, 1.71 µM
[31] = RPMI 5 mM glucose + 10% dialyzed FBS, 5.12 µM
[32] = RPMI 5 mM glucose + 10% dialyzed FBS, 15.4 µM
[33] = RPMI 5 mM glucose + 10% dialyzed FBS, 46.1 µM

CC(=O)OCC(=O)[C@@]12\N=C(C)/O[C@@H]1C[C@H]3[C@@H]4CCC/5=C/C(=O)/C=C\[C@]5(C)[C@H]4[C@@H](O)C[C@]23C
cell viability [1]: 107% | cell viability [2]: 102% | cell viability [3]: 109% | cell viability [4]: 130% | cell viability [5]: 133% | cell viability [6]: 137% | cell viability [7]: 122% | cell viability [8]: 128% | cell viability [9]: 105% | cell viability [10]: 121% | cell viability [11]: 86.6% | cell viability [12]: 94.3% | cell viability [13]: 106% | cell viability [14]: 94.6% | cell viability [15]: 105% | cell viability [16]: 108% | cell viability [17]: 106% | cell viability [18]: 107% | cell viability [19]: 113% | cell viability [20]: 107% | cell viability [21]: 98% | cell viability [22]: 99.6% | cell viability [23]: 94.1% | cell viability [24]: 96.1% | cell viability [25]: 102% | cell viability [26]: 99.2% | cell viability [27]: 105% | cell viability [28]: 117% | cell viability [29]: 109% | cell viability [30]: 113% | cell viability [31]: 109% | cell viability [32]: 104% | cell viability [33]: 91.8%

Cc1cccc(C)c1OCC(=O)N[C@@H](Cc1ccccc1)[C@@H](O)C[C@H](Cc1ccccc1)NC(=O)[C@H](C(C)C)N1CCCNC1=O
cell viability [1]: 95.1% | cell viability [2]: 106% | cell viability [3]: 102% | cell viability [4]: 109% | cell viability [5]: 104% | cell viability [6]: 111% | cell viability [7]: 89% | cell viability [8]: 91.5% | cell viability [9]: 91.4% | cell viability [10]: 81% | cell viability [11]: 43.9% | cell viability [12]: 85.8% | cell viability [13]: 94% | cell viability [14]: 97.7% | cell viability [15]: 85.8% | cell viability [16]: 95.9% | cell viability [17]: 97.3% | cell viability [18]: 84% | cell viability [19]: 78.4% | cell viability [20]: 83% | cell viability [21]: 86.4% | cell viability [22]: 74.4% | cell viability [23]: 96.9% | cell viability [24]: 92.9% | cell viability [25]: 92.9% | cell viability [26]: 107% | cell viability [27]: 91.1% | cell viability [28]: 89.2% | cell viability [29]: 81.1% | cell viability [30]: 82.4% | cell viability [31]: 89.4% | cell viability [32]: 76.5% | cell viability [33]: 71%

CCNC(=O)c1cc2c(-c3cc(OCCN4CCCC4)c(Cl)cc3Cl)nc(N)nc2s1
cell viability [1]: 105% | cell viability [2]: 121% | cell viability [3]: 92.7% | cell viability [4]: 107% | cell viability [5]: 102% | cell viability [6]: 104% | cell viability [7]: 105% | cell viability [8]: 86.6% | cell viability [9]: 47.3% | cell viability [10]: 17.2% | cell viability [11]: 15.8% | cell viability [12]: 84.7% | cell viability [13]: 93.6% | cell viability [14]: 95.6% | cell viability [15]: 85.6% | cell viability [16]: 95.8% | cell viability [17]: 109% | cell viability [18]: 88.2% | cell viability [19]: 88.9% | cell viability [20]: 32.3% | cell viability [21]: 13.2% | cell viability [22]: 10.1% | cell viability [23]: 107% | cell viability [24]: 103% | cell viability [25]: 115% | cell viability [26]: 111% | cell viability [27]: 82.8% | cell viability [28]: 107% | cell viability [29]: 93.2% | cell viability [30]: 76.8% | cell viability [31]: 51.2% | cell viability [32]: 18.3% | cell viability [33]: 12.5%

COc1cc(Nc2ncc(F)c(Nc3ccc4c(n3)NC(=O)C(C)(C)O4)n2)cc(OC)c1OC
cell viability [1]: 93.8% | cell viability [2]: 105% | cell viability [3]: 119% | cell viability [4]: 127% | cell viability [5]: 139% | cell viability [6]: 138% | cell viability [7]: 120% | cell viability [8]: 106% | cell viability [9]: 53.3% | cell viability [10]: 11.4% | cell viability [11]: 6.39% | cell viability [12]: 104% | cell viability [13]: 111% | cell viability [14]: 118% | cell viability [15]: 118% | cell viability [16]: 125% | cell viability [17]: 126% | cell viability [18]: 128% | cell viability [19]: 106% | cell viability [20]: 73.9% | cell viability [21]: 13.4% | cell viability [22]: 7.45% | cell viability [23]: 109% | cell viability [24]: 99.7% | cell viability [25]: 107% | cell viability [26]: 106% | cell viability [27]: 105% | cell viability [28]: 116% | cell viability [29]: 128% | cell viability [30]: 103% | cell viability [31]: 82.7% | cell viability [32]: 23.9% | cell viability [33]: 6.81%

OC(=O)\C1=C\N(C2=CC=C(F)C=C2)C3=C(C=C(F)C(=C3)N4CCNCC4)C1=O
cell viability [1]: 113% | cell viability [2]: 99.1% | cell viability [3]: 116% | cell viability [4]: 111% | cell viability [5]: 129% | cell viability [6]: 122% | cell viability [7]: 114% | cell viability [8]: 105% | cell viability [9]: 101% | cell viability [10]: 95.6% | cell viability [11]: 98.6% | cell viability [12]: 103% | cell viability [13]: 99.1% | cell viability [14]: 110% | cell viability [15]: 101% | cell viability [16]: 104% | cell viability [17]: 104% | cell viability [18]: 117% | cell viability [19]: 104% | cell viability [20]: 115% | cell viability [21]: 98.4% | cell viability [22]: 94.6% | cell viability [23]: 107% | cell viability [24]: 106% | cell viability [25]: 116% | cell viability [26]: 105% | cell viability [27]: 106% | cell viability [28]: 113% | cell viability [29]: 133% | cell viability [30]: 100% | cell viability [31]: 105% | cell viability [32]: 104% | cell viability [33]: 85.8%

C[C@H]1C[C@H]2[C@@H]3CCC4=CC(=O)C=C[C@]4(C)[C@@]3(F)[C@@H](O)C[C@]2(C)[C@@]1(O)C(=O)CO
cell viability [12]: 120% | cell viability [13]: 122% | cell viability [14]: 128% | cell viability [15]: 122% | cell viability [16]: 123% | cell viability [17]: 133% | cell viability [18]: 131% | cell viability [19]: 135% | cell viability [20]: 120% | cell viability [21]: 120% | cell viability [22]: 106%

OC[C@H](Cc1ccccc1)Nc1nc(Oc2ccc3c(c2)CCC3)nc2c1ncn2Cc1ccc(-c2ccccc2)cc1
cell viability [1]: 95.3% | cell viability [2]: 100% | cell viability [3]: 83.5% | cell viability [4]: 123% | cell viability [5]: 86.9% | cell viability [6]: 98.5% | cell viability [7]: 108% | cell viability [8]: 88.6% | cell viability [9]: 99.5% | cell viability [10]: 87.2% | cell viability [11]: 96.7% | cell viability [12]: 79.7% | cell viability [13]: 83.2% | cell viability [14]: 84.8% | cell viability [15]: 96.4% | cell viability [16]: 102% | cell viability [17]: 89.7% | cell viability [18]: 90.3% | cell viability [19]: 92.2% | cell viability [20]: 98.8% | cell viability [21]: 90.5% | cell viability [22]: 90.2% | cell viability [23]: 90.7% | cell viability [24]: 84% | cell viability [25]: 102% | cell viability [26]: 95.6% | cell viability [27]: 98.5% | cell viability [28]: 101% | cell viability [29]: 116% | cell viability [30]: 96.7% | cell viability [31]: 100% | cell viability [32]: 114% | cell viability [33]: 96.3%

CC[C@H]1/C=C\C=C/C[C@@H](C)[C@H](O)[C@@](C)(O)C(=O)[C@@H](C)[C@H](O)[C@@H](C)C(=O)[C@@H](C)[C@H](O)[C@@H](C)/C=C/C(=O)O[C@@H]2[C@H](C)[C@H](CC1)O[C@]1(CC[C@H](C)[C@H](C[C@@H](C)O)O1)[C@H]2C
cell viability [1]: 74.4% | cell viability [2]: 89.4% | cell viability [3]: 105% | cell viability [4]: 117% | cell viability [5]: 103% | cell viability [6]: 106% | cell viability [7]: 108% | cell viability [8]: 55.4% | cell viability [9]: 40.7% | cell viability [10]: 31.6% | cell viability [11]: 5.57% | cell viability [12]: 83% | cell viability [13]: 86.4% | cell viability [14]: 87.1% | cell viability [15]: 88.9% | cell viability [16]: 82.7% | cell viability [17]: 104% | cell viability [18]: 92.7% | cell viability [19]: 44.7% | cell viability [20]: 39.1% | cell viability [21]: 37.6% | cell viability [22]: 4.56% | cell viability [23]: 81.4% | cell viability [24]: 89.2% | cell viability [25]: 92.9% | cell viability [26]: 83.9% | cell viability [27]: 75.1% | cell viability [28]: 94.4% | cell viability [29]: 79.7% | cell viability [30]: 54.2% | cell viability [31]: 39.9% | cell viability [32]: 31.6% | cell viability [33]: 4.92%

— the supplement of paper PMC11451515
